Patent publication US20260297060A1, “COMPOUNDS FOR THE DEGRADATION OF MUTANT BRAF” (C4 THERAPEUTICS, INC., priority 2023, published 2026)
Like-named read-outs stand apart in the source and are kept apart here.

Legend:
[1] = system: A375 human melanoma cancer cell derived xenografts, intracranial; assay: Example 12 efficacy study, intracranial A375-luciferase CNS model: survival; type: in vivo, BALB/c nude mice; settings: 35 mg/kg PO/QD; vehicle median 18 days
Experimental: For the efficacy study, agents were tested in A375 human melanoma cancer cell derived xenografts (CDX). This cell line was isolated from the primary melanoma of a person and is known to have a homozygous BRAF V600E mutation. The A375 tumor cells were maintained in vitro in DMEM medium supplemented with 10% fetal bovine serum and 1% Penicillin-Streptomycin at 37° C. in an atmosphere of 5% CO2 in air. The tumor cells were routinely subcultured twice weekly. The cells growing in an exponential growth phase were harvested and counted for tumor inoculation.
For this CNS study, A375 cells with a luciferase tag for tracking tumor cell signal, were injected intracranially into 6-8-week-old female BALB/c nude mice (Zhejiang Vital River Laboratory Animal Co., LTD. Beijing, China). The mice were anaesthetized, restrained, and sterilized prior to surgery. A sagittal cut was made above the anterior parietal and occipital bone with sterilized scalpel, the skull was unrevealed and cleaned with cotton bud, in this case the anterior fontanel could be available. A 2 mm hole was created to the right of the anterior fontanel and 0.5 mm ahead of the coronal on the skull with a cranial drill. Cell suspensions in 20% Matrigel were mixed and aspirated into injector carefully to avoid bubbles and wiped to avoid extracranial tumor genesis. The needle was inserted vertically into the cranial hole and the cell mixture was slowly injected for 2 minutes and held for another minute to decrease the drainage of the cell suspension. The wound was closed, and a subcutaneous injection of 5 mg/kg Meloxicam was given to relieve the pain and continued for 3 days. The mice were monitored closely until they woke up after the surgery. During the study, the care and use of animals was conducted in accordance with the regulations of the Association for Assessment and Accreditation of Laboratory Animal Care (AAALAC). After inoculation, the animals were checked daily for morbidity and mortality. At the time of routine monitoring, the animals would be checked for any effects of tumor growth and treatments on normal behavior such as mobility, food and water consumption, body weight gain/loss, eye/hair matting, and any other abnormal effect.
The administration of the test agents began three days after inoculation. CNS tumor-bearing mice were randomly assigned to groups of 8 mice and administered Compound 26 at 10 mg/kg orally (PO) twice a day (BID), Compound 141 at 10 mg/kg PO/BID, encorafenib at 35 mg/kg once a day orally, (PO/QD), or the vehicle alone PO/BID. Measurements for the presence of the A375 luciferase (CRL-1619-LUC2, ATCC, Manassas, VA, USA) cells within the CNS were done with IVIS Lumina III machine. Images were collected twice weekly to follow the growth of the models. The tumor-bearing mice were weighed and intraperitoneally administered luciferin (Perkin Elmer Inc-122799) at a dosage of 150 mg/kg. After 10 min, mice were pre-anesthetized with the mixture gas of oxygen and isoflurane. The bioluminescence value at 15 min post luciferin injection was recorded as the final value and plotted. The endpoint for individual mice was reached when the mouse body weight decreased by 20% when compared to their starting weight.

[2] = Example 8 pharmacokinetics assay for PKPD study (plasma, tumor, liver); type: in vivo, BALB/c nude mice; settings: mouse, po, 35 mg/kg, p.o., single dose
Experimental: For the PK and PD study, agents were administered to BALB/c nude mice bearing A375 human melanoma xenografts tumors. encorafenib, Compound 8, Compound 26, Compound 38, and Compound 39 were dosed p.o. once on day 1. Encorafenib was dosed at 35 mg/kg, Compound 8, Compound 26, Compound 38, and Compound 39 were dosed at 10 mg/kg. This study was non-GLP.
The plasma samples were collected at predetermined time points for PK analysis. For non-termination plasma collection, blood samples were collected into the 1.5 mL Eppendorf tubes containing 3 μL of 0.5 M EDTA-K2. For termination plasma collection, the mice were euthanized at predetermined time points post the treatment and the blood samples were collected into the 1.5 mL Eppendorf tubes containing 15 μL of 0.5 M EDTA-K2. And then the anticoagulant blood samples were centrifuged at 2,500 g at 4° C. for 15 minutes. The plasma samples were separated into 2 aliquots. The 1st was used for PK analysis, and the 2nd served as backup. The samples were stored at −80° C. before bioanalysis.
The tumor samples were collected at predetermined time points for PK and WB analysis. The tumor was dissected out and split into 3 parts. The 1st part was used for PK analysis, the 2nd part was used for WB analysis and the last one served as backup for study. The samples were transferred into pre-labeled tubes and quickly froze in liquid nitrogen within 2 minutes after dissection. The samples were stored at −80° C. before bioanalysis.
Liver samples were collected at predetermined time points for PK analysis. The left lobe of the liver was dissected out and split into 2 parts. The 1st part was used for PK analysis and the 2nd part served as the backup for the study. The samples were transferred into pre-labeled tubes and quickly froze in liquid nitrogen within 2 minutes after dissection. The samples were stored at −80° C. before bioanalysis.
The harvested plasma and liver samples were processed for pharmacokinetics analysis by LC-MS/MS with a concentration range of 0.200~200 ng/mL for encorafenib in plasma and liver homogenate, and 0.100-100 ng/ml in tumor homogenate, 1.00-1000 ng/mL for Compound 8 in plasma and 0.500~500 ng/ml in tumor and liver homogenate, 50.0~50,000 ng/mL for Compound 26 and Compound 38 in plasma, 5.0~5000 ng/ml in liver and 2.00~2000 ng/ml in tumor homogenate, 1.00-1000 ng/mL for Compound 39 in plasma and 0.500~500 ng/mL in liver and tumor homogenate.

[3] = liver, read-out: Concentration in Liver (mean ± SEM)
[4] = plasma, read-out: Concentration in Plasma (mean ± SEM)
[5] = tumor, read-out: Concentration in Tumor (mean ± SEM)

COC(=O)N[C@@H](C)CNc1nccc(-c2cn(C(C)C)nc2-c2cc(Cl)cc(NS(C)(=O)=O)c2F)n1 [Encorafenib, encorafenib, reference compound]
median survival [1]: 46 days
concentration at 6 h [2, 3]: 362 ± 231 ng/g
concentration at 12 h [2, 3]: 16 ± 5.3 ng/g
concentration at 1 h [2, 4]: 5510 ± 1700 ng/mL
concentration at 6 h [2, 4]: 585 ± 446 ng/mL
concentration at 12 h [2, 4]: 11.3 ± 8.5 ng/mL
concentration at 24 h ([2]; plasma, 24 h, read-out: Concentration in Plasma (mean ± SEM)): 0.368 ± 0.082 ng/mL
concentration at 1 h [2, 5]: 1350 ± 391 ng/g
concentration at 6 h [2, 5]: 139 ± 76.2 ng/g
concentration at 12 h [2, 5]: 16.1 ± 10.9 ng/g
